Reference: ChEMBL document CHEMBL1137407, “Identification and optimization of anthranilic sulfonamides as novel, selective cholecystokinin-2 receptor antagonists” (J Med Chem, 2006)

Columns and labels:
[1] = Stability in human liver microsome after 30 mins; type: ADME; details: liver microsomes, read-out: Stability
[2] = target: T1, Cholecystokinin receptor type A (Homo sapiens, UniProt P32238)
T1 sequence (P32238 whole entry): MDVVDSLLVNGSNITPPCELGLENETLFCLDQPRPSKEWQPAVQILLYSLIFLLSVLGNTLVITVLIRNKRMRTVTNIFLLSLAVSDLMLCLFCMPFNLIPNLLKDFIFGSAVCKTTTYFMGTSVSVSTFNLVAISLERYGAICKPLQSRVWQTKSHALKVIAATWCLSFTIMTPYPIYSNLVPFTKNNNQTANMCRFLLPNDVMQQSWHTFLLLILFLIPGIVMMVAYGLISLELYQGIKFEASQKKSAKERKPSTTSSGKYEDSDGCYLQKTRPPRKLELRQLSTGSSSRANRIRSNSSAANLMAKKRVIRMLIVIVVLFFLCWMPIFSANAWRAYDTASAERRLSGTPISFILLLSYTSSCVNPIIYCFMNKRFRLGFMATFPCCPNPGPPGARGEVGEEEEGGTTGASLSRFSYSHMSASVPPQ
Description: Displacement of [125I]CCK-8S from human CCK1R

[3] = Stability in rat liver microsome after 30 mins; type: ADME; details: liver microsomes, read-out: Stability
[4] = Clearance in Sprague-Dawley rat at 2 umol/kg, iv; type: ADME, organism-based; details: in vivo
[5] = Half life in Sprague-Dawley rat at 2 umol/kg, iv; type: ADME, organism-based; details: in vivo
[6] = target: T2, Gastrin/cholecystokinin type B receptor (Homo sapiens, UniProt P32239)
T2 sequence (P32239 whole entry): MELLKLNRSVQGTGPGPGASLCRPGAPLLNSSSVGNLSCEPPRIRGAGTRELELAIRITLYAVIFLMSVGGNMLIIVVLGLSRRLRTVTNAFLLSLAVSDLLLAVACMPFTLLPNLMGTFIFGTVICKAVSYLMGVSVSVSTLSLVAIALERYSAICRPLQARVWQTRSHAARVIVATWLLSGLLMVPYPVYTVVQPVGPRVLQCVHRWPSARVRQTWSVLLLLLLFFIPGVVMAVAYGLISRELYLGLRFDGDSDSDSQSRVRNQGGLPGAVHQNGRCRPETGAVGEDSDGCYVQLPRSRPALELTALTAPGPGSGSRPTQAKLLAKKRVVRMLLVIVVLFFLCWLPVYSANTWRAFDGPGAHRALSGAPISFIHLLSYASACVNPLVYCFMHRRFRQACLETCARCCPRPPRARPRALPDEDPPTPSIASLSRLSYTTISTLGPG
Description: Displacement of [125I]CCK-8S from human CCK2R

[7] = Clearance in Beagle dog at 2 umol/kg, iv; type: ADME, organism-based, Canis lupus familiaris; details: in vivo
[8] = Oral bioavailability in Beagle dog at 20 umol/kg, po; type: ADME, organism-based, Canis lupus familiaris; details: in vivo
[9] = Oral bioavailability in Sprague-Dawley rat at 2 umol/kg, po; type: ADME, organism-based; details: in vivo
[10] = Half life in Beagle dog at 2 umol/kg, iv; type: ADME, organism-based, Canis lupus familiaris; details: in vivo
Rattus norvegicus = test: Inhibition of pentagastrin-stimulated gastric acid secretion in po dosed conscious gastric fistula Sprague-Dawley rat; type: functional; details: Stomach
[11] = Dissociation constant, pKa of the compound; type: physicochemical

Ki ([2]; read-out: Ki) [µM]	Ki ([6]; read-out: Log Ki (converted)) [µM]	SMILES	further results
> 10	–	O=C(c1ccc(I)cc1NS(=O)(=O)c1cccc2nccnc12)N1CCOCC1	clearance [7]: 1.62 mL/min/kg; remaining at 0.5 h [1]: 60%; clearance [4]: 6 mL/min/kg; bioavailability [8]: 51%; half-life [5]: 37.2 min; bioavailability [9]: 55%; half-life [10]: 90 min; ED50 (Rattus norvegicus): 0.57 mg/kg; remaining at 0.5 h [3]: 46%
> 10	–	O=C(c1ccc(Cl)c(NS(=O)(=O)c2cccc3nsnc23)c1)N1CCCCC1	Ki ([6]; read-out: Ki): > 10 µM
> 10	0.0631	O=C(c1ccc(Cl)cc1NS(=O)(=O)c1cccc2nsnc12)N1CCC(c2ccccc2)CC1	–
> 10	2.51	O=C(NCc1ccccc1)c1ccc(Cl)cc1NS(=O)(=O)c1cccc2nsnc12	–
> 10	–	O=C(O)c1ccc(C(=O)N2CCCCC2)c(NS(=O)(=O)c2cccc3nsnc23)c1	Ki ([6]; read-out: Ki): > 10 µM
> 10	0.0631	O=C(c1ccc(Cl)cc1NS(=O)(=O)c1cccc2nsnc12)N1CCCCCC1	remaining at 0.5 h [1]: 11%; remaining at 0.5 h [3]: 2%
> 10	1.26	O=C(c1ccc(Cl)cc1NS(=O)(=O)c1cccc2nsnc12)N1CCC(CO)CC1	–
> 10	–	O=C(c1ccc(Cl)cc1NS(=O)(=O)c1cccc2nsnc12)N1CCC(N2CCCCC2)CC1	Ki ([6]; read-out: Ki): > 10 µM
> 10	0.316	O=C(c1ccc(Cl)cc1NS(=O)(=O)c1cccc2nsnc12)N1CCOCC1	–
> 10	0.126	O=C(c1cc2ccccc2cc1NS(=O)(=O)c1cccc2nsnc12)N1CCCCC1	–
> 10	5.01	C[C@H]1COC[C@H](C)N1C(=O)c1ccc(Cl)cc1NS(=O)(=O)c1cccc2nccnc12	–
> 10	0.251	CCc1ccc(C(=O)N2CCCCC2)c(NS(=O)(=O)c2cccc3nsnc23)c1	–
> 10	1	O=C(c1ccc(Cl)cc1NS(=O)(=O)c1cccc2nsnc12)N1CCc2ccccc2C1	–
> 10	0.158	O=C(c1ccc(-c2ccccc2)cc1NS(=O)(=O)c1cccc2nsnc12)N1CCCCC1	–
> 10	0.0631	O=C(c1ccc(Br)cc1NS(=O)(=O)c1cccc2nccnc12)N1CCCCC1	remaining at 0.5 h [1]: 21%; clearance [4]: 13.8 mL/min/kg; half-life [5]: 20.4 min; bioavailability [9]: 50%; remaining at 0.5 h [3]: 8%

The next lines start with the molecule.

SMILES	Ki ([2]; read-out: Ki) [µM]	Ki ([6]; read-out: Log Ki (converted)) [µM]	further results
O=C(c1cc(Cl)c(Cl)cc1NS(=O)(=O)c1cccc2nsnc12)N1CCCCC1	> 10	–	remaining at 0.5 h [1]: 8%; remaining at 0.5 h [3]: 8%
O=C(c1cc(Cl)ccc1NS(=O)(=O)c1cccc2nsnc12)N1CCCCC1	–	0.398	remaining at 0.5 h [1]: 16%; clearance [4]: 7 mL/min/kg; half-life [5]: 21 min; Ki ([2]; read-out: Log Ki (converted)): > 10 µM; remaining at 0.5 h [3]: 9%
CC1CC(C)CN(C(=O)c2ccc(Cl)cc2NS(=O)(=O)c2cccc3nsnc23)C1 (stereo not given)	> 10	1.26	–
CC(=O)Nc1ccc(C(=O)N2CCCCC2)c(NS(=O)(=O)c2cccc3nsnc23)c1	> 10	–	Ki ([6]; read-out: Ki): > 10 µM
O=C(c1ccc(CS)cc1NS(=O)(=O)c1cccc2nsnc12)N1CCCCC1	> 10	0.1	–
O=C(c1ccccc1NS(=O)(=O)c1cccc2nsnc12)N1CCOCC1	> 10	–	Ki ([6]; read-out: Ki): > 10 µM
O=C(Nc1ccccc1C(=O)NC(Cc1ccccc1)C(=O)O)c1cc2ccccc2[nH]1 (stereo not given)	–	–	Ki ([2]; read-out: Log Ki (converted)): 0.0316 µM; Ki ([6]; read-out: Ki): > 10 µM
O=C(c1c(Cl)cccc1NS(=O)(=O)c1cccc2nsnc12)N1CCCCC1	> 10	1	–
C[C@@H]1C=C[C@H](C)N1C(=O)c1ccc(Cl)cc1NS(=O)(=O)c1cccc2nsnc12	> 10	0.2	–
O=C(c1ccc(Br)cc1NS(=O)(=O)c1cccc2nsnc12)N1CCOCC1	> 10	0.126	–
O=C(c1ccc(-c2ccco2)cc1NS(=O)(=O)c1cccc2nsnc12)N1CCCCC1	> 10	0.126	–
Cc1ccc(S(=O)(=O)Nc2cc(Br)ccc2C(=O)N2CCCCC2)c2nsnc12	> 10	0.1	–
O=C(c1ccc(Br)cc1NS(=O)(=O)c1cccc2ccccc12)N1CCCCC1	> 10	–	Ki ([6]; read-out: Ki): > 10 µM
CN(C)c1ccc(C(=O)N2CCCCC2)c(NS(=O)(=O)c2cccc3nsnc23)c1	> 10	0.316	–
O=C(c1ccc(Cl)cc1NS(=O)(=O)c1cccc2cccnc12)N1CCCCC1	> 10	–	Ki ([6]; read-out: Ki): > 10 µM
CN(Cc1ccccc1)C(=O)c1ccc(Cl)cc1NS(=O)(=O)c1cccc2nsnc12	> 10	0.0316	remaining at 0.5 h [1]: 2.2%

SMILES	Ki ([2]; read-out: Ki) [µM]	Ki ([6]; read-out: Log Ki (converted)) [µM]	further results
O=C(c1ccc(Br)cc1NS(=O)(=O)c1cccc2ncccc12)N1CCCCC1	> 10	0.794	–
O=C(c1ccc(OC2CCCC2)cc1NS(=O)(=O)c1cccc2nsnc12)N1CCCCC1	> 10	0.158	–
O=C(c1ccc(I)cc1NS(=O)(=O)c1cccc2nsnc12)N1CCCCC1	> 10	0.00501	–
CC1CCCCN1C(=O)c1ccc(Cl)cc1NS(=O)(=O)c1cccc2nsnc12 (stereo not given)	> 10	–	remaining at 0.5 h [1]: 14%; remaining at 0.5 h [3]: 3%
O=C(c1ccc(Cl)cc1NS(=O)(=O)c1cccc2nonc12)N1CCCCC1	> 10	1.58	pKa [11]: 6.18
COc1ccc(C(=O)N2CCCCC2)c(NS(=O)(=O)c2cccc3nsnc23)c1	> 10	0.631	–
O=C(c1ccc(F)cc1NS(=O)(=O)c1cccc2nsnc12)N1CCOCC1	> 10	3.98	–
O=C(c1ccc(Br)cc1NS(=O)(=O)c1ccc(Br)c2nsnc12)N1CCCCC1	> 10	0.158	–
O=C(c1ccc(F)cc1NS(=O)(=O)c1cccc2nccnc12)N1CCOCC1	> 10	3.98	–
CC1CN(C(=O)c2ccc(Cl)cc2NS(=O)(=O)c2cccc3nsnc23)CCN1 (stereo not given)	> 10	–	Ki ([6]; read-out: Ki): > 10 µM
O=C(c1ccc(Br)cc1NS(=O)(=O)c1cccc2cnccc12)N1CCCCC1	> 10	–	Ki ([6]; read-out: Ki): > 10 µM
O=C(c1ccc(Cl)cc1NS(=O)(=O)c1cccc2nsnc12)N1CCC1	> 10	1.58	–
O=C(c1ccc(Br)cc1NS(=O)(=O)c1ccc2nsnc2c1)N1CCCCC1	> 10	> 10	–
O=C(c1ccc(C(F)(F)F)cc1NS(=O)(=O)c1cccc2nsnc12)N1CCCCC1	> 10	0.0631	–
O=C(Nc1cc(Br)ccc1C(=O)N1CCCCC1)c1cccc2nsnc12	> 10	–	Ki ([6]; read-out: Ki): > 10 µM
